Structures are written as SMILES. Like-named read-outs stand apart in the source and are kept apart here.

These results are taken from patent publication US11104657B2, “Notch inhibitors for use in the treatment of t-cell acute lymphoblastic leukemia” (UNIVERSITÀ DEGLI STUDI DI ROMA “LA SAPIENZA”, priority 2016, dated 2021).

Test [1] has as its system activated domain of Notch1 in HaCaT cells. Nature of the test: Western blot of N1VAL expression in HaCaT cells. Type of test: cell-based. The settings on record: 36 hours. Here is the method: Laemmli Sample Buffer (161-0737; Bio-Rad Laboratories Inc., Hercules, Calif., USA) was added to each cell pellet. Cells were lysed by ultrasonic sonication and to each mixture 5% 2-mercaptoethanol (161-0710; Bio-Rad Laboratories Inc., Hercules, Calif., USA) was added. Samples were denatured at 100° C. for 5 min and protein mixtures were separated by means of Sodium Dodecyl Sulphate-Polyacrylamide Gel Electrophoresis using 8% acrylamide and transferred onto nitrocellulose membranes. After transfer, the membranes pre-saturated in 5% Blot Dry Fat Milk (1706404; Bio-Rad Laboratories Inc., Hercules, Calif., USA) were incubated for 16 hours at +4° C. with the following primary antibodies diluted at 1:1000 in 5% Dry Fat Milk (1706404; Bio-Rad Laboratories Inc., Hercules, Calif., USA): Notch1Val1744 (2421; Cell Signaling Technology, Beverly, Mass., USA), Notch3 (2889; Cell Signaling Technology, Beverly, Mass., USA) and β-actin (sc-47778; Santa Cruz Biotechnology, Santa Cruz, Calif., USA). Subsequently, filters were incubated for 1 hour at room temperature with the following secondary antibodies: anti-rabbit (sc-2004, Santa Cruz Biotechnology, Santa Cruz, Calif., USA) or anti-mouse (sc-2005, Santa Cruz Biotechnology, Santa Cruz, Calif., USA). […]
On the technique in general: In western blotting, separated proteins are transferred to a membrane and probed.

Test [2] concerns DND41 cells. Nature of the test: MTS cell proliferation assay (IG50), DND41. It counts as cell-based, human. To be noted: for IC50: Homo sapiens; for effect on cell proliferation: doses of up to 50 μM. How it is done:
In order to evaluate the biological implications of the compounds, their effect on cell proliferation/vitality was tested by determining the relative concentrations of growth inhibition (IG50) by means of the MTS cellular assay.
(§1) The cell lines DND41 (ACC 525, DSMZ, Braunschweig, GERMANY), KOPTK1 (RRID: CVCL_4965) were maintained in culture in RPMI-1640 (Gibco, Carlsbad, Calif., USA) with 10% fetal bovine serum. TALL-1 cells (ACC-521: DSMZ, Braunschweig, GERMANY) were cultured in RPMI-1640 (Gibco, Carlsbad, Calif., USA) supplemented with 20% fetal bovine serum, while HaCaT cells (ACC-771: DSMZ, Braunschweig, GERMANY) were maintained in Eagle's culture medium according to Dulbecco (Gibco, Carlsbad, Calif., USA) containing 10% fetal bovine serum. Cells were treated with the naturally-occurring compounds A-H or with compounds 1-17 for times and concentrations indicated in the text.
Cells were seeded in 96-well plates with a density of 5×10^5 cells/ml (5×10^4 cells per well) and treated for the times and the concentrations of the various compounds, as indicated in the text.
(§2) All treatments were carried out in triplicate, including control treatments. All treatment reactions contained a final concentration of 1% DMSO (D5879; Sigma-Aldrich, St Louis, Mo., USA). To quantify vitality, cells were assayed by the MTS CellTiter 96® AQueous One Solution Cell Proliferation Assay (G3580; Promega, Madison, Wis., USA). Absorbance was detected at 490 nm using the GloMax Multidetection System instrument (Promega, Madison, Wis., USA). Data were collected in the form of absorbance units (ABSs) and standardized to obtain the proliferation rate (MTS) through the equation: % cell proliferation=(ABScell culture+compound−ABSculture medium+compound/(ABScell culture+DMSO−ABSculture medium+DMSO)×100.
The 50% inhibition concentration was calculated using the GraphPad Prism software program (GraphPad Software Inc., La Jolla, Calif., USA).
A general note: Formazan colour is commonly taken as a measure of viable cells.

In test [3] the test system is HaCaT keratinocytes. Nature of the test: MTS cell proliferation assay, HaCaT keratinocytes. Type of test: cell-based. To be noted: Homo sapiens; immortalized non-tumor HaCaT keratinocytes. Here is the method:
as §1, with “text. […]” for “text.”
as §2, with “All treatment reactions contained a final concentration of 1% DMSO (D5879; Sigma-Aldrich, St Louis, Mo., USA).” left out, “medium+DMSO)×100. […]” for “medium+DMSO)×100.”

The test system of test [4] is TALL-1 cells. Kind of test: MTS cell proliferation assay, TALL-1. Type of test: cell-based. To be noted: Homo sapiens. Here is the method: as §1, with “text. […]” for “text.”
as §2, with “All treatment reactions contained a final concentration of 1% DMSO (D5879; Sigma-Aldrich, St Louis, Mo., USA).” left out, “medium+DMSO)×100. […]” for “medium+DMSO)×100.”

In test [5] the test system is KOPTK1 cells. Kind of test: MTS cell proliferation assay, KOPTK1. Type of test: cell-based. The settings on record: Homo sapiens. How it is done: as §1, with “text. […]” for “text.”
as §2, with “All treatment reactions contained a final concentration of 1% DMSO (D5879; Sigma-Aldrich, St Louis, Mo., USA).” left out, “medium+DMSO)×100. […]” for “medium+DMSO)×100.”

For test [6], the system named is Notch signaling (N1VAL, N3ICD) in DND41 cells. Kind of test: Western blot of N1VAL and N3ICD expression in DND41 cells. Type of test: cell-based, human. To be noted: DND41 cells, 36 hours, 0-50 μM, Western blot. Here is the method: In order to identify new naturally-occurring molecular agents able to modulate Notch signaling, the effects on protein expression of the activated domain of Notch1 (N1VAL), and of the intracellular domain of Notch3 (N3ICD), were evaluated in DND41 cells through
Western blotting assays, following treatment for 36 hours with increasing concentrations (0, 1, 5, 10, 20, 50 μM) of the eight molecules (A-H) previously selected. Functional biochemical screening was performed on T-ALL DND41 cells because they are notoriously sensitive to the block of Notch signaling, and characterized by the constitutive and ligand-independent activation of the Notch1 pathway and by the high expression of Notch3. This makes this cell line a useful experimental model for screening putative Notch inhibitors.
In order to investigate the activity and selectivity of action of the 12 synthetic derivatives of butein, and following the screening scheme described in the first design phase, the efficacy of these molecules was analyzed by verifying the effects of 36 hours of treatment at increasing doses on the activation of Notch signaling and on the proliferation in DND41 cells.
Laemmli Sample Buffer (161-0737; Bio-Rad Laboratories Inc., Hercules, Calif., USA) was added to each cell pellet. Cells were lysed by ultrasonic sonication and to each mixture 5% 2-mercaptoethanol (161-0710; Bio-Rad Laboratories Inc., Hercules, Calif., USA) was added. Samples were denatured at 100° C. for 5 min and protein mixtures were separated by means of Sodium Dodecyl Sulphate-Polyacrylamide Gel Electrophoresis using 8% acrylamide and transferred onto nitrocellulose membranes. After transfer, the membranes pre-saturated in 5% Blot Dry Fat Milk (1706404; Bio-Rad Laboratories Inc., Hercules, Calif., USA) were incubated for 16 hours at +4° C. with the following primary antibodies diluted at 1:1000 in 5% Dry Fat Milk (1706404; Bio-Rad Laboratories Inc., Hercules, Calif., USA): Notch1Val1744 (2421; Cell Signaling Technology, Beverly, Mass., USA), Notch3 (2889; Cell Signaling Technology, Beverly, Mass., USA) and β-actin (sc-47778; Santa Cruz Biotechnology, Santa Cruz, Calif., USA). Subsequently, filters were incubated for 1 hour at room temperature with the following secondary antibodies: anti-rabbit (sc-2004, Santa Cruz Biotechnology, Santa Cruz, Calif., USA) or anti-mouse (sc-2005, Santa Cruz Biotechnology, Santa Cruz, Calif., USA). Chemiluminescence signal detection was performed using the ECL Advanced Detection System substrate (RPN2135; E Healthcare UK Limited, Buckinghamshire, UK).

[7] abbreviates: 36-hour treatments in DND41 cells, mean of triplicate experiments ± S.D., Table 1, read-out: IG50 S.D.

Regarding `COc1ccc(C(=O)/C=C/c2ccc(O)cc2)c(O)c1` [Compound 8, 2′,4-dihydroxy-4′-methoxychalcone], the “concentration from which expression of the activated domain of Notch1 is significantly reduced” value in test [1] is not below 2.5 µM. Moreover, the IC50 in test [2] (36-hour treatments in DND41 cells, mean of triplicate experiments ± S.D., Table 2, read-out: IG50 ± S.D.) is 1920 ± 1040 nM; in test [2] (DND41 cells, MTS assay, 36 hours of treatment, read-out: IG50 (growth inhibition)) it was 1920 nM; in test [3], 48600 ± 8060 nM; in test [4] it was 290 ± 20 nM; in test [5], 910 ± 60 nM.

`COc1c2occc2cc2ccc(=O)oc12` [Compound D, 9-methoxyfuran[3,2-g]chromen-7-one, reference compound]: in test [2] (DND41 cells), the “effect on cell proliferation” value is recorded as “do not significantly affect cell proliferation”. Besides, the IC50 in test [2] (setting [7]) is more than 50000 nM. Moreover, the “effect on the expression of N1VAL” value in test [6] was “did not significantly modulate”.

With `COc1ccc2oc3cccc(O)c3c(=O)c2c1` [Compound F, 1-hydroxy-7-methoxy-9H-xanthen-9-one, reference compound], in test [2] (DND41 cells), the “effect on cell proliferation” value is “do not significantly affect cell proliferation”. For the same compound, in test [2] (setting [7]), the IC50 was more than 50000 nM. Moreover, the “effect on the expression of N1VAL” value in test [6] is reported as “did not significantly modulate”.

`CC(=O)C1=C(O)[C@]2(C)C(=CC1=O)Oc1c(C(C)=O)c(O)c(C)c(O)c12` [Compound G, 2,6-diacetyl-7,9-dihydroxy-8,9b-dimethyldibenzofuran-1,3-dione, reference compound]: the “effect on cell proliferation” value in test [2] (DND41 cells) is listed as “do not significantly affect cell proliferation”. Further, the IC50 in test [2] (DND41, 36 h, read-out: IG50 S.D.) is more than 50000 nM. Also, the “effect on the expression of N1VAL” value in test [6] is given as “did not significantly modulate”.
